Measurements reported in US9320739B2 (AMBIT BIOSCIENCES CORPORATION, priority 2008, dated 2016).
pKd: −log10 of the molar value. Like-named read-outs stand apart in the source and are kept apart here.

What was measured:
RAF kinases [1] = target: T1, RAF kinases (Homo sapiens, UniProt P04049); assay: Competition binding assay to determine binding constants (Kd) between compounds and RAF kinases; conditions: RAF1
T1 construct: rows headed: RAF1 Kd; other: RAF1; fused on or other part: T7 phage fusion, or DNA tag for PCR detection after expression in HEK-293 cells
T1 sequence (P04049 whole entry, the tested form may be a part): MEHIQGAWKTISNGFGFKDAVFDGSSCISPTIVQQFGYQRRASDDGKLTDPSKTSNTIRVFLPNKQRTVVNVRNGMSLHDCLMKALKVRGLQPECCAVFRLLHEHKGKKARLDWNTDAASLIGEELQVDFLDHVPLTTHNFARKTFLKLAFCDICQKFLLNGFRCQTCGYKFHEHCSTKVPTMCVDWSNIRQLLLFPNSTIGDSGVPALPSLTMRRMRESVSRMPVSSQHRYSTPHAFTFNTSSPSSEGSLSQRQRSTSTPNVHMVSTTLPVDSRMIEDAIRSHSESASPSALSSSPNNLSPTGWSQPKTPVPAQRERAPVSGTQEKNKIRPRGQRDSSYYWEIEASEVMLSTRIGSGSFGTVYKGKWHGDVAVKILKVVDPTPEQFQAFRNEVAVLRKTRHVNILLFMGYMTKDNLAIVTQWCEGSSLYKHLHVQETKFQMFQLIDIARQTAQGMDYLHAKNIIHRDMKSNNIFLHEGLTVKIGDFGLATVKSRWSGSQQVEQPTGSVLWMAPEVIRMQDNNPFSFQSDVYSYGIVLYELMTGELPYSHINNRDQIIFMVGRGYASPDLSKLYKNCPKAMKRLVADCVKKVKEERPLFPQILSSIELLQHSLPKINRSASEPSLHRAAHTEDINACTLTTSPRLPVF
Method: (§1) Competition binding assays used herein were developed, validated and performed as described in Fabian et al., Nature Biotechnology 2005, 23, 329-336. […] The liganded beads were blocked with excess biotin and washed with blocking buffer (SeaBlock (Pierce), 1% BSA, 0.05% Tween 20, 1 mM DTT) to remove unbound ligand and to reduce non-specific binding. […] Test compounds were prepared as 100× stocks in DMSO and rapidly diluted into the aqueous environment. DMSO was added to control assays lacking a test compound. Primary screen interactions were performed in polypropylene 384-well plates in a final volume of 34 μL, while Kd determinations were performed in polystyrene 96-well plates in a final volume of 135 pt. […] The kinase concentration in the eluates was measured by quantitative PCR. Each kinase was tested individually against each compound. Kds were determined using eleven serial threefold dilutions. A selectivity score, which is a quantitative measure of selectivity of a compound against a panel of enzymes, may be calculated for a compound by dividing the number of enzymes for which a compound meets a set criteria, (for example, a binding constant of 100 nM or less), by the total number of enzymes tested. […] (Note, for those compounds tested in a larger kinase panel, as indicated by an asterisk (*) next to the S35 score, the divisor is 321 (i.e. the larger panel contains 321 distinct kinases, excluding mutant variants.)).

[2] = tested on: panel of 290 distinct kinases (321 in the larger panel), excluding mutant variants; conditions: fraction of kinases inhibited 65% or greater
Method: as §1

RAF kinases [3] = target: T2, RAF kinases (Homo sapiens, UniProt P15056, V600E); assay: Competition binding assay to determine binding constants (Kd) between compounds and RAF kinases; conditions: BRAF V600E
T2 construct: rows headed: BRAF V600E Kd; other: BRAF V600E; fused on or other part: T7 phage fusion, or DNA tag for PCR detection after expression in HEK-293 cells
T2 sequence (P15056 whole entry V600E, the tested form may be a part): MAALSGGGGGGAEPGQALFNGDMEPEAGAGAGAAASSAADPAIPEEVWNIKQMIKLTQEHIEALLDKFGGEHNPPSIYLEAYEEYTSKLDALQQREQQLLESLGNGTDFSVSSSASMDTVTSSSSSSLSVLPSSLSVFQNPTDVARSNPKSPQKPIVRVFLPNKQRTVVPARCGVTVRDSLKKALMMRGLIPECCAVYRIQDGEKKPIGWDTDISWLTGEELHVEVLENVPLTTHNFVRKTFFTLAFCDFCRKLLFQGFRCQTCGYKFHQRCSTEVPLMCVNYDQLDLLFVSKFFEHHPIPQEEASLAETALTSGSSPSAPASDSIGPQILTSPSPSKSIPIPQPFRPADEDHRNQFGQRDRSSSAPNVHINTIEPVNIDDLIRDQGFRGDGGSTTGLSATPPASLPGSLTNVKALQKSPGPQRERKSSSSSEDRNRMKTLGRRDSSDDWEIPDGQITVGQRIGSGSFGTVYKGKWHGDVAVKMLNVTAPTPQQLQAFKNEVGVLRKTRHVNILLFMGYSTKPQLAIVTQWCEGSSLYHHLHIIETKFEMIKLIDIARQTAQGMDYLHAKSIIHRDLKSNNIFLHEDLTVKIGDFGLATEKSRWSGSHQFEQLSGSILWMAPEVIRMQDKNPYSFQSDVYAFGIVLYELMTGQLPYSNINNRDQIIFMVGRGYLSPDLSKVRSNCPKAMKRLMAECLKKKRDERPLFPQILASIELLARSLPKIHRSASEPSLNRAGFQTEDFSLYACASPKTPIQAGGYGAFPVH
Method: as §1

RAF kinases [4] = target: T3, RAF kinases (Homo sapiens, UniProt P15056); assay: as above; conditions: BRAF WT
T3 construct: rows headed: BRAF WT Kd; other: BRAF WT; fused on or other part: T7 phage fusion, or DNA tag for PCR detection after expression in HEK-293 cells
T3 sequence (P15056 whole entry, the tested form may be a part): as the sequence (P15056 whole entry V600E, the tested form may be a part) above, with E600V counted along it
Method: as §1

[5] = no asterisk: panel of 290 distinct kinases

Row | Structure (SMILES) | pKd (RAF kinases [1]) | S35 [2, 5] | pKd (RAF kinases [3]) | pKd (RAF kinases [4]) | S35 ([2]; asterisk: panel of 321 distinct kinases)
1 | COc1cc2ncnc(Oc3cc(NC(=O)Nc4cc(C(C)(C)C)on4)ccc3Cl)c2cc1OC [Ex 10, 1-(5-tert-butylisoxazol-3-yl)-3-(4-chloro-3-(6,7-dimethoxyquinazolin-4-yloxy)phenyl)urea] | 6.00 to 6.30 | D (D > 0.40) | – | – | –
2 | COc1cc2ncnc(Oc3cccc(NC(=O)Nc4cc(C(F)(F)F)n(-c5ccccc5)n4)c3)c2cc1OC [Ex 169, 1-[3-(6,7-dimethoxyquinazolin-4-yloxy)phenyl]-3-[1-phenyl-5-(trifluoromethyl)-1H-pyrazol-3-yl]urea] | – | – | 6.30 to 6.60 | – | –
3 | COc1cc2ncnc(Oc3cccc(NC(=O)Nc4ccc(Cl)cc4)c3)c2cc1OC [Ex 175, 1-(4-chlorophenyl)-3-(3-(6,7-dimethoxyquinazolin-4-yloxy)phenyl)urea] | > 6.60 | C (0.20 < C ≦ 0.40) | > 6.60 | > 6.60 | –
4 | COc1cc2ncnc(Sc3cccc(NC(=O)Nc4cc(C(F)(F)F)nn4-c4ccc(C)cc4)c3)c2cc1OC [Ex 199, 1-[3-(6,7-dimethoxyquinazolin-4-ylthio)phenyl]-3-[1-p-tolyl-3-(trifluoromethyl)-1H-pyrazol-5-yl]urea] | – | – | – | – | D* (D > 0.40)
